Assay results: publication PMC7520961, “Safety evaluation of the interchangeable use of robenacoxib in commercially-available tablets and solution for injection in cats” (BMC Veterinary Research, 2020)

Assays:
anesthetized cats = tested on: anesthetized cats; design: method as in ref 24 = [24]; 24. Panteri A Deurinck M Seewald W Gerber S King JN Desevaux C Safety of intravenous Robenacoxib (Onsior) in cats J Vet Pharmacol Ther 2015 38 S1 149; settings: single dose SC 2 mg/kg or 2 or 4 mg/kg IV, 5 or 60 min post administration; cited from earlier work
cats = assay: Clinical chemistry (target animal safety study); assay type: in vivo, cat; settings: for Total Bilirubin (mean ± SD) / GGT (mean ± SD) / AST (mean ± SD) / Creatine Kinase (mean ± SD) / Creatinine (mean ± SD) / Albumin/Globulin Ratio (mean ± SD) / Globulin (mean ± SD) / Albumin (mean ± SD) / Potassium (mean ± SD) / Total Protein (mean ± SD) / Phosphorus (mean ± SD) / Calcium (mean ± SD) / Triglyceride (mean ± SD) / Urea Nitrogen (mean ± SD) / ALT (mean ± SD) / Alkaline Phosphatase (mean ± SD) / Glucose (mean ± SD) / Cholesterol (mean ± SD) / Chloride (mean ± SD) / Sodium (mean ± SD): post-treatment, average of days 13 and 37; for Total Bilirubin (mean ± SD): reference range 0 - 0.3; for GGT (mean ± SD): reference range 0 – 2; for GGT (mean ± SD) / Albumin/Globulin Ratio (mean ± SD): significant treatment x sex and treatment x time effects (p<0.1); for AST (mean ± SD): reference range 0 – 55; for AST (mean ± SD) / Triglyceride (mean ± SD): significant treatment x sex effect (p<0.1); for Creatine Kinase (mean ± SD): reference range 0 – 1213; for Creatinine (mean ± SD): reference range 0.5 - 1.3; for Albumin/Globulin Ratio (mean ± SD): reference range 0.9 - 1.5; for Globulin (mean ± SD): reference range 2.1 - 3.3; for Albumin (mean ± SD): reference range 2.9 - 3.7; for Potassium (mean ± SD): reference range 4.6 - 7.4, significant treatment x time effect (p<0.1); for Total Protein (mean ± SD): reference range 5.4 - 6.7; for Phosphorus (mean ± SD): reference range 6.2 - 9.7, significant (p<0.1); for Calcium (mean ± SD): reference range 9.6 - 11.5; for Triglyceride (mean ± SD): reference range 12 – 64; for Urea Nitrogen (mean ± SD): reference range 15 – 35; for ALT (mean ± SD): reference range 27 – 103; for Alkaline Phosphatase (mean ± SD): reference range 50 – 186; for Glucose (mean ± SD): reference range 55 - 159; for Cholesterol (mean ± SD): reference range 88 – 148; for Chloride (mean ± SD): reference range 112 – 123; for Sodium (mean ± SD): reference range 146 – 160
Procedure: The upper lip was everted and a Surgicutt incision device was used to create a small incision (approximately 1 mm in depth and 3.5 mm in length). Blood flow from the incision site was blotted using filter paper below the incision. The elapsed time from the triggering of the device until blood no longer appeared on the filter paper was recorded as the bleed time. […] Blood samples (3.0 mL) were collected from the jugular vein into tubes containing K3EDTA for evaluation of hematology parameters, sodium citrate for evaluation of coagulation parameters, and serum separators with no anticoagulant for the clinical chemistry samples. […] Coagulation variables were determined using a Stago Compact (Diagnostica Stago, Parsippany, NJ, US), clinical chemistry variables were determined using an Olympus AU2700 or AU640e (Olympus Diagnostics, Southall, UK), and urinalysis variables were determined using a […]-500 or Atlas (Siemens, Munich, Germany), Reichert VET 360 (Reichert Technologies, Buffalo, New York, USA), or light microscope. Post-treatment values were analyzed using […], with treatment group, sex, time, and their interactions as fixed model effects and the pre-treatment value measured closest to dosing as a covariate. Repeated measurements in the same animal were modeled using a compound symmetry or heterogeneous compound symmetry correlation structure (for food consumption: autoregressive first-order or heterogeneous autoregressive first-order); the model with the smallest Akaike's Information Criterion was selected for each outcome. If any of the interactions involving treatment was significant (p < 0.1 for the two-factor interactions or p < 0.05 for the three-factor interaction), it was inappropriate to evaluate the main or overall treatment effect independently of the interacting factor and, as such, treatment comparisons were conducted for each level of the interacting factor. If none of the interactions involving treatment were significant, overall treatment differences were assessed.

[1] = 1X (oral ≥2.4, SC 2.0 mg/kg/day)
[2] = 2X (oral ≥4.8, SC 4.0 mg/kg/day)
[3] = 3X (oral ≥7.2, SC 6.0 mg/kg/day)

SMILES: CCc1ccc(Nc2c(F)c(F)cc(F)c2F)c(CC(=O)O)c1 [robenacoxib]
- electrocardiographic changes (including QT interval) (anesthetized cats): no electrocardiographic changes
- Total Bilirubin (mean ± SD) (cats; [1]): 0.18 ± 0.04 mg/dL
- GGT (mean ± SD) (cats; [1]): 1.14 ± 0.43 U/L
- AST (mean ± SD) (cats; [1]): 22.2 ± 8.6 U/L
- Creatine Kinase (mean ± SD) (cats; [1]): 1479 ± 1901 U/L
- Creatinine (mean ± SD) (cats; [1]): 0.86 ± 0.13 mg/dL
- Albumin/Globulin Ratio (mean ± SD) (cats; [1]): 1.29 ± 0.14
- Globulin (mean ± SD) (cats; [1]): 2.62 ± 0.23 g/dL
- Albumin (mean ± SD) (cats; [1]): 3.31 ± 0.21 g/dL
- Potassium (mean ± SD) (cats; [1]): 5.40 ± 0.24 mEq/L
- Total Protein (mean ± SD) (cats; [1]): 5.93 ± 0.28 g/dL
- Phosphorus (mean ± SD) (cats; [1]): 8.86 ± 0.76 mg/dL
- Calcium (mean ± SD) (cats; [1]): 10.01 ± 0.31 mg/dL
- Triglyceride (mean ± SD) (cats; [1]): 40.1 ± 27.2 mg/dL
- Urea Nitrogen (mean ± SD) (cats; [1]): 25.3 ± 2.7 mg/dL
- ALT (mean ± SD) (cats; [1]): 54.6 ± 9.2 U/L
- Alkaline Phosphatase (mean ± SD) (cats; [1]): 105.6 ± 40.6 U/L
- Glucose (mean ± SD) (cats; [1]): 85.1 ± 7.1 mg/dL
- Cholesterol (mean ± SD) (cats; [1]): 105.0 ± 18.1 mg/dL
- Chloride (mean ± SD) (cats; [1]): 116.63 ± 1.50 mEq/L
- Sodium (mean ± SD) (cats; [1]): 150.3 ± 1.3 mEq/L
- Total Bilirubin (mean ± SD) (cats; [2]): 0.19 ± 0.03 mg/dL
- GGT (mean ± SD) (cats; [2]): 1.33 ± 0.65 U/L
- AST (mean ± SD) (cats; [2]): 22.0 ± 4.1 U/L
- Creatine Kinase (mean ± SD) (cats; [2]): 975 ± 903 U/L
- Creatinine (mean ± SD) (cats; [2]): 0.85 ± 0.12 mg/dL
- Albumin/Globulin Ratio (mean ± SD) (cats; [2]): 1.36 ± 0.14
- Globulin (mean ± SD) (cats; [2]): 2.57 ± 0.28 g/dL
- Albumin (mean ± SD) (cats; [2]): 3.46 ± 0.17 g/dL
- Potassium (mean ± SD) (cats; [2]): 5.33 ± 0.41 mEq/L
- Total Protein (mean ± SD) (cats; [2]): 6.03 ± 0.35 g/dL
- Phosphorus (mean ± SD) (cats; [2]): 8.18 ± 0.83 mg/dL
- Calcium (mean ± SD) (cats; [2]): 10.16 ± 0.26 mg/dL
- Triglyceride (mean ± SD) (cats; [2]): 32.4 ± 9.1 mg/dL
- Urea Nitrogen (mean ± SD) (cats; [2]): 24.8 ± 4.0 mg/dL
- ALT (mean ± SD) (cats; [2]): 56.6 ± 9.4 U/L
- Alkaline Phosphatase (mean ± SD) (cats; [2]): 94.5 ± 24.4 U/L
- Glucose (mean ± SD) (cats; [2]): 84.1 ± 9.0 mg/dL
- Cholesterol (mean ± SD) (cats; [2]): 103.9 ± 14.2 mg/dL
- Chloride (mean ± SD) (cats; [2]): 115.88 ± 1.71 mEq/L
- Sodium (mean ± SD) (cats; [2]): 150.5 ± 1.4 mEq/L
- phosphorus relative to controls (pairwise comparison, pooled samples over all time points) (cats; 2X group, not considered clinically relevant): decrease
- Total Bilirubin (mean ± SD) (cats; [3]): 0.19 ± 0.03 mg/dL
- GGT (mean ± SD) (cats; [3]): 0.94 ± 0.05 U/L
- AST (mean ± SD) (cats; [3]): 22.8 ± 6.8 U/L
- Creatine Kinase (mean ± SD) (cats; [3]): 1763 ± 2175 U/L
- Creatinine (mean ± SD) (cats; [3]): 0.79 ± 0.12 mg/dL
- Albumin/Globulin Ratio (mean ± SD) (cats; [3]): 1.32 ± 0.16
- Globulin (mean ± SD) (cats; [3]): 2.66 ± 0.29 g/dL
- Albumin (mean ± SD) (cats; [3]): 3.44 ± 0.18 g/dL
- Potassium (mean ± SD) (cats; [3]): 5.50 ± 0.43 mEq/L
- Total Protein (mean ± SD) (cats; [3]): 6.10 ± 0.34 g/dL
- Phosphorus (mean ± SD) (cats; [3]): 8.66 ± 0.78 mg/dL
- Calcium (mean ± SD) (cats; [3]): 10.17 ± 0.26 mg/dL
- Triglyceride (mean ± SD) (cats; [3]): 37.7 ± 14.7 mg/dL
- Urea Nitrogen (mean ± SD) (cats; [3]): 25.2 ± 3.9 mg/dL
- ALT (mean ± SD) (cats; [3]): 55.3 ± 10.5 U/L
- Alkaline Phosphatase (mean ± SD) (cats; [3]): 90.0 ± 19.5 U/L
- Glucose (mean ± SD) (cats; [3]): 83.1 ± 6.2 mg/dL
- Cholesterol (mean ± SD) (cats; [3]): 112.6 ± 23.7 mg/dL
- Chloride (mean ± SD) (cats; [3]): 115.81 ± 1.97 mEq/L
- Sodium (mean ± SD) (cats; [3]): 150.6 ± 1.5 mEq/L
